What is called IC50 is the point on the concentration scale where inhibition reaches its midpoint.

Molecules are shown by their SMILES. *1 amine or outer side, *2 acyl side, *3 side chain or, on linkers, in order; H or OH if unused. Where a SMILES comes first, the peptide text is derived from it. Bridges are numbered along the chain shown (N, C = ends). [ ]: non-standard residue; d: D form. The star is where a group is joined. ξ: configuration not given here. Phe(4-COOH) = N[C@@H](Cc1ccc(C(=O)O)cc1)C(=O)O; Bip = N[C@@H](Cc1ccc(-c2ccccc2)cc1)C(=O)O; Phe(3-Me) = Cc1cccc(C[C@H](N)C(=O)O)c1; X11 = CC[C@@H](C)C(N[*:1])C(=O)[*:2]; hArg = N=C(N)NCCCC[C@H](N)C(=O)O; 4Pal = N[C@@H](Cc1ccncc1)C(=O)O; Cha = N[C@@H](CC1CCCCC1)C(=O)O; Ile(3ξ) = CCC(C)[C@H](N)C(=O)O; Thr(3ξ) = CC(O)[C@H](N)C(=O)O; 12Ado = NCCCCCCCCCCCC(=O)O; Carboxymethyl = O=C(O)C*; NMeA = CN[C@@H](C)C(=O)O; Orn = NCCC[C@H](N)C(=O)O; Aun = NCCCCCCCCCCC(=O)O; Dab = NCC[C@H](N)C(=O)O; Dap = NC[C@H](N)C(=O)O; AEEA = NCCOCCOCC(=O)O

Consider 13 molecules from patent publication US20260070945A1, “MACROCYCLIC IMMUNOMODULATORS” (Bristol-Myers Squibb Company, priority 2022, published 2026).

T1 sequence (Q15116 25-288): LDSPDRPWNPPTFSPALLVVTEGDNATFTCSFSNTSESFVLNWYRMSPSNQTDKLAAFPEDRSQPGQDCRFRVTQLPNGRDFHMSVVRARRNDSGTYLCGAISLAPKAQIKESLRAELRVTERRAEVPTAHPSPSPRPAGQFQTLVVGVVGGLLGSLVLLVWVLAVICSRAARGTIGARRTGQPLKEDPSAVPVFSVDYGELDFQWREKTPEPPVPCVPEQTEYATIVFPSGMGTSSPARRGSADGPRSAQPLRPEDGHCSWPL

The experiment addresses T1, PD-1/PD-L1 interaction (PE-labeled human PD-L1-Ig binding to Jurkat cell line over-expressing human PD-1) (Homo sapiens, UniProt Q15116).
T1 construct: expressed in transfected cells; host or cells: Jurkat
In words: Jurkat-PD-1 Cell Binding High-Content Screening Assay (CBA). The settings on record: Jurkat-hPD-1 cells, PE-labeled PD-L1-Ig 20 nM final; read-out: Jurkat HPD1 PDL1 IC50. Put shortly: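 Read-out: high-content imaging of cell-bound PE fluorescence, with Hoechst 33342 nuclear counterstain after paraformaldehyde fixation. Before labeled ligand (20 nM final, 1 h) was added, compound sat on the cells for 2 h at 37 °C in DMEM/10% FCS.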
As for `CC(C)C[C@@H]1NC(=O)[C@H](Cc2c[nH]c3ccccc23)NC(=O)[C@H](CC(=O)O)NC(=O)[C@H](Cc2c[nH]cn2)NC(=O)[C@H](CCCCNC(=N)N)NC(=O)CSC[C@@H](C(=O)N[C@@H](CCN)C(=O)NCCCCCCCCCCC(=O)O)NC(=O)[C@H](CCCN)NC(=O)[C@H](C(C)C)NC(=O)[C@H](CC2CCCCC2)NC(=O)[C@H](CCN)NC(=O)[C@@H](CC(C)C)NC(=O)[C@H](C)N(C)C(=O)[C@H](C(C)C)NC(=O)[C@H](Cc2ccc(-c3ccccc3)cc2)NC1=O` [Example 2195] ({CH2CO}-[hArg]HDWL[Bip]V[NMeA][dL][Dab][Cha]V[Orn]C[Dab][Aun]-OH; thioether N-14), the concentration for half-maximal inhibition (IC50) was determined as 80.3 nM. Take `CC[C@@H](C)C1NC(=O)[C@H](Cc2ccc(-c3ccccc3)cc2)NC(=O)[C@H](CC(C)C)NC(=O)[C@H](Cc2cccc(C)c2)NC(=O)[C@H](CC(=O)O)NC(=O)[C@H](Cc2ccc(O)cc2)NC(=O)[C@H](Cc2ccccc2)NC(=O)CSC[C@@H](C(=O)N[C@@H](CCN)C(=O)NCCCCCCCCCCC(=O)O)NC(=O)[C@H](CCCCN)NC(=O)[C@H](C(C)C)NC(=O)[C@H](CC(C)C)NC(=O)[C@H](CCN)NC(=O)[C@@H](C)NC(=O)[C@H](C)N(C)C1=O` (stereo partly shown) [Example 2197] ({CH2CO}-FYD[Phe(3-Me)]L[Bip][X11][NMeA][dA][Dab]LVKC[Dab][Aun]-OH; thioether N-14): the IC50 is 94 nM. With `Cc1cccc(C[C@@H]2NC(=O)[C@H](CC(=O)O)NC(=O)[C@H](Cc3ccc(O)cc3)NC(=O)[C@H](Cc3ccccc3)NC(=O)CSC[C@@H](C(=O)N[C@@H](CCN)C(=O)NCCCCCCCCCCC(=O)O)NC(=O)[C@H](CCCN)NC(=O)[C@H](C(C)C)NC(=O)[C@H](CC(C)C)NC(=O)[C@H](CCN)NC(=O)[C@@H](C)NC(=O)[C@H](C)N(C)C(=O)[C@H](C(C)C)NC(=O)[C@H](Cc3ccc(-c4ccccc4)cc3)NC(=O)[C@H](CC(C)C)NC2=O)c1` [Example 2198] ({CH2CO}-FYD[Phe(3-Me)]L[Bip]V[NMeA][dA][Dab]LV[Orn]C[Dab][Aun]-OH; thioether N-14), the IC50 was 73 nM. Turning to `CCC(C)[C@@H]1NC(=O)[C@H](Cc2ccc(-c3ccccc3)cc2)NC(=O)[C@H](CC(C)C)NC(=O)[C@H](Cc2cccc(C)c2)NC(=O)[C@H](CC(=O)O)NC(=O)[C@H](Cc2ccc(O)cc2)NC(=O)[C@H](Cc2ccccc2)NC(=O)CSC[C@@H](C(=O)N[C@@H](CN)C(=O)NCCCCCCCCCCC(=O)O)NC(=O)[C@H](CCCN)NC(=O)[C@H](C(C)C)NC(=O)[C@H](CC(C)C)NC(=O)[C@H](CCN)NC(=O)[C@@H](C)NC(=O)[C@H](C)N(C)C1=O` (stereo partly shown) [Example 2199] ({CH2CO}-FYD[Phe(3-Me)]L[Bip][Ile(3ξ)][NMeA][dA][Dab]LV[Orn]C[Dap][Aun]-OH; thioether N-14), the IC50 came to 132 nM. The value for `CCC(C)[C@@H]1NC(=O)[C@H](Cc2ccc(-c3ccccc3)cc2)NC(=O)[C@H](CC(C)C)NC(=O)[C@H](Cc2cccc(C)c2)NC(=O)[C@H](CC(=O)O)NC(=O)[C@H](Cc2ccc(O)cc2)NC(=O)[C@H](Cc2ccncc2)NC(=O)CSC[C@@H](C(=O)N[C@@H](CCN)C(=O)NCCCCCCCCCCC(=O)O)NC(=O)[C@H](CCCCN)NC(=O)[C@H](C(C)C)NC(=O)[C@H](CC(C)C)NC(=O)[C@H](CCN)NC(=O)[C@@H](C)NC(=O)[C@H](C)N(C)C1=O` (stereo partly shown) [Example 2200] ({CH2CO}-[4Pal]YD[Phe(3-Me)]L[Bip][Ile(3ξ)][NMeA][dA][Dab]LVKC[Dab][Aun]-OH; thioether N-14) was 20.6 nM. As for `Cc1cccc(C[C@@H]2NC(=O)[C@H](CC(=O)O)NC(=O)[C@H](Cc3ccc(O)cc3)NC(=O)[C@H](Cc3ccncc3)NC(=O)CSC[C@@H](C(=O)N[C@@H](CCN)C(=O)NCCCCCCCCCCC(=O)O)NC(=O)[C@H](CCCN)NC(=O)[C@H](C(C)C)NC(=O)[C@H](CC(C)C)NC(=O)[C@H](CCN)NC(=O)[C@@H](C)NC(=O)[C@H](C)N(C)C(=O)[C@H](C(C)C)NC(=O)[C@H](Cc3ccc(-c4ccccc4)cc3)NC(=O)[C@H](CC(C)C)NC2=O)c1` [Example 2201] ({CH2CO}-[4Pal]YD[Phe(3-Me)]L[Bip]V[NMeA][dA][Dab]LV[Orn]C[Dab][Aun]-OH; thioether N-14), the 50% inhibitory concentration (IC50) came out at 15.2 nM. Consider `CCC(C)[C@@H]1NC(=O)[C@H](Cc2ccc(-c3ccccc3)cc2)NC(=O)[C@H](CC(C)C)NC(=O)[C@H](Cc2cccc(C)c2)NC(=O)[C@H](CC(=O)O)NC(=O)[C@H](Cc2ccc(O)cc2)NC(=O)[C@H](Cc2ccncc2)NC(=O)CSC[C@@H](C(=O)N[C@@H](CN)C(=O)NCCCCCCCCCCC(=O)O)NC(=O)[C@H](CCCN)NC(=O)[C@H](C(C)C)NC(=O)[C@H](CC(C)C)NC(=O)[C@H](CCN)NC(=O)[C@@H](C)NC(=O)[C@H](C)N(C)C1=O` (stereo partly shown) [Example 2202] ({CH2CO}-[4Pal]YD[Phe(3-Me)]L[Bip][Ile(3ξ)][NMeA][dA][Dab]LV[Orn]C[Dap][Aun]-OH; thioether N-14), for which the IC50 came to 31.3 nM. For `CC(C)C[C@H]1NC(=O)[C@H](C)N(C)C(=O)[C@H](C(C)C)NC(=O)[C@H](Cc2ccc(-c3ccccc3)cc2)NC(=O)[C@H](C(C)C)NC(=O)[C@H](Cc2c[nH]c3ccccc23)NC(=O)[C@H](CC(=O)O)NC(=O)[C@H](Cc2ccc(OCC(=O)O)cc2)NC(=O)[C@H](C(C)O)NC(=O)CSC[C@@H](C(=O)N[C@H](CC(N)=O)C(=O)NCCOCCOCC(=O)NCCCCCCCCCCCC(=O)O)NC(=O)[C@H](CCCN)NC(=O)[C@H](C(C)C)NC(=O)[C@H](CC2CCCCC2)NC(=O)[C@H](CCN)NC1=O` (stereo partly drawn) [Example 2203] ({CH2CO}-[Thr(3ξ)]Y(Carboxymethyl)DWV[Bip]V[NMeA][dL][Dab][Cha]V[Orn]C[dN][AEEA][12Ado]-OH; thioether N-14), the 50% inhibitory concentration (IC50) came out at 9.5 nM.

In the case of `CC(C)C[C@H]1NC(=O)[C@H](C)N(C)C(=O)[C@H](C(C)C)NC(=O)[C@H](Cc2ccc(-c3ccccc3)cc2)NC(=O)[C@H](C(C)C)NC(=O)[C@H](Cc2c[nH]c3ccccc23)NC(=O)[C@H](CC(=O)O)NC(=O)[C@H](Cc2ccc(OCC(=O)O)cc2)NC(=O)[C@H](CCCNC(=N)N)NC(=O)CSC[C@@H](C(=O)N[C@H](CC(N)=O)C(=O)NCCOCCOCC(=O)NCCCCCCCCCCCC(=O)O)NC(=O)[C@H](CCCCN)NC(=O)[C@H](C(C)C)NC(=O)[C@H](CC2CCCCC2)NC(=O)[C@H](CCN)NC1=O` [Example 2204] ({CH2CO}-RY(Carboxymethyl)DWV[Bip]V[NMeA][dL][Dab][Cha]VKC[dN][AEEA][12Ado]-OH; thioether N-14), the IC50 came to 20.3 nM.

For `CCC(C)[C@@H]1NC(=O)[C@H](Cc2ccc(-c3ccccc3)cc2)NC(=O)[C@H](CC(C)C)NC(=O)[C@H](Cc2c[nH]c3ccccc23)NC(=O)[C@H](CC(=O)O)NC(=O)[C@H](Cc2ccc(OCC(=O)O)cc2)NC(=O)[C@H](CCCCNC(=N)N)NC(=O)CSC[C@@H](C(=O)N[C@@H](CCN)C(=O)NCCOCCOCC(=O)NCCCCCCCCCCC(=O)O)NC(=O)[C@H](CCCCN)NC(=O)[C@H](C(C)C)NC(=O)[C@H](CC2CCCCC2)NC(=O)[C@H](CCN)NC(=O)[C@H]2CCCN2C(=O)[C@H](C)N(C)C1=O` (stereo partly shown) [Example 2206] ({CH2CO}-[hArg]Y(Carboxymethyl)DWL[Bip][Ile(3ξ)][NMeA][dP][Dab][Cha]VKC[Dab][AEEA][Aun]-OH; thioether N-14), the half-maximal inhibitory concentration (IC50) is 83.7 nM. For `CC(C)C[C@@H]1NC(=O)[C@H](Cc2c[nH]c3ccccc23)NC(=O)[C@H](CC(=O)O)NC(=O)[C@H](Cc2ccc(C(=O)O)cc2)NC(=O)[C@H](Cc2ccc(OCC(=O)O)cc2)NC(=O)CSC[C@@H](C(=O)N[C@@H](CCN)C(=O)NCCOCCOCC(=O)NCCCCCCCCCCC(=O)O)NC(=O)[C@H](CCCCN)NC(=O)[C@H](C(C)C)NC(=O)[C@H](CC2CCCCC2)NC(=O)[C@H](CCN)NC(=O)[C@@H](C)NC(=O)[C@H](C)N(C)C(=O)[C@H](C(C)C)NC(=O)[C@H](Cc2ccc(-c3ccccc3)cc2)NC1=O` [Example 2207] ({CH2CO}-Y(Carboxymethyl)[Phe(4-COOH)]DWL[Bip]V[NMeA][dA][Dab][Cha]VKC[Dab][AEEA][Aun]-OH; thioether N-14), the IC50 was determined as 9.9 nM.

In the case of `CCC(C)[C@@H]1NC(=O)[C@H](Cc2ccc(-c3ccccc3)cc2)NC(=O)[C@H](C(C)C)NC(=O)[C@H](Cc2c[nH]c3ccccc23)NC(=O)[C@H](CC(=O)O)NC(=O)[C@H](Cc2ccc(OCC(=O)O)cc2)NC(=O)[C@H](C(C)O)NC(=O)CSC[C@@H](C(=O)N[C@H](CC(N)=O)C(=O)NCCOCCOCC(=O)NCCCCCCCCCCC(=O)O)NC(=O)[C@H](CCCCN)NC(=O)[C@H](C(C)C)NC(=O)[C@H](CC2CCCCC2)NC(=O)[C@H](CCN)NC(=O)[C@@H](CC(C)C)NC(=O)[C@H](C)N(C)C1=O` (stereo partly drawn) [Example 2208] ({CH2CO}-[Thr(3ξ)]Y(Carboxymethyl)DWV[Bip][Ile(3ξ)][NMeA][dL][Dab][Cha]VKC[dN][AEEA][Aun]-OH; thioether N-14), the half-inhibitory concentration (IC50) turned out to be 24.7 nM. As to `CCC(C)[C@@H]1NC(=O)[C@H](Cc2ccc(-c3ccccc3)cc2)NC(=O)[C@H](C(C)C)NC(=O)[C@H](Cc2c[nH]c3ccccc23)NC(=O)[C@H](CC(=O)O)NC(=O)[C@H](Cc2ccc(OCC(=O)O)cc2)NC(=O)[C@H](C(C)O)NC(=O)CSC[C@@H](C(=O)N[C@H](CC(N)=O)C(=O)NCCCCCCCCCCC(=O)O)NC(=O)[C@H](CO)NC(=O)[C@H](C(C)C)NC(=O)[C@H](CC2CCCCC2)NC(=O)[C@H](CCN)NC(=O)[C@@H](CC(C)C)NC(=O)[C@H](C)N(C)C1=O` (stereo partly drawn) [Example 2209] ({CH2CO}-[Thr(3ξ)]Y(Carboxymethyl)DWV[Bip][Ile(3ξ)][NMeA][dL][Dab][Cha]VSC[dN][Aun]-OH; thioether N-14), the IC50 is 15.6 nM.
